PubChem BioAssay AID2060490 (Molecular Pharmacology Branch, DTP, NCI, 2025)
pIC50: −log10 of the molar value.

Tested on: 885512-296-R-J2-PDC complex spheroid viability
Assay: Anticancer human tumor 885512-296-R-J2-PDC patient-derived breast carcinoma cell line growth inhibition [GQUAD]
Details: for pIC50: curve of first compound; for viability, T/C: stronger effect = lower value
How it was run: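 Multi-cell-type spheroids of tumor cells with HUVEC and mesenchymal stem cells, treated with drug combinations. Concentrations descend in half-log steps from near clinical Cmax, or from 10 microM where Cmax is unknown; viability read-out.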
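Also: spheroids exposed to the compounds for one week.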
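For viability, T/C in this document: percent of tumor spheroid viability relative to DMSO vehicle control wells.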

Question: How did the pIC50 (second compound 0.0316 µM) turn out when `COc1ncnc(C2CC2)c1-c1ncc2cnn(Cc3ccc(-c4nc(C(F)(F)F)cn4C(C)C)cc3)c2n1` + Cc1cnc(CNC(=O)c2c(=O)c3ccc(N4CCCN(C)CC4)nc3n3c2sc2ccccc23)cn1 was run?
Answer: < 5.00

Question: What about the pIC50 (second compound 0.1 µM) of the same molecule?
Answer: < 5.00

Question: What about the pIC50 (second compound 0.316 µM) of the same molecule?
Answer: > 7.50

Question: And the pIC50 (second compound 1 µM)?
Answer: > 7.50

Question: What about the pIC50 (second compound 3.16 µM) of the same molecule?
Answer: > 7.50

Question: And the pIC50 (second compound 10 µM)?
Answer: > 7.50

Question: And the viability, T/C (second compound 0.0316 µM, first compound 0.0316 µM)?
Answer: 94.7%

Question: What about the viability, T/C (second compound 0.0316 µM, first compound 0.1 µM) of the same molecule?
Answer: 76%

Question: What about the viability, T/C (second compound 0.0316 µM, first compound 0.316 µM) of the same molecule?
Answer: 76.9%

Question: And the viability, T/C (second compound 0.0316 µM, first compound 1 µM)?
Answer: 78.2%

Question: What about the viability, T/C (second compound 0.0316 µM, first compound 3.16 µM) of the same molecule?
Answer: 80.6%

Question: What about the viability, T/C (second compound 0.0316 µM, first compound 10 µM) of the same molecule?
Answer: 77.7%

Question: What about the viability, T/C (second compound 0.1 µM, first compound 0.0316 µM) of the same molecule?
Answer: 62.5%

Question: What about the viability, T/C (second compound 0.1 µM, first compound 0.1 µM) of the same molecule?
Answer: 52.4%

Question: And the viability, T/C (second compound 0.1 µM, first compound 0.316 µM)?
Answer: 54.4%

Question: What about the viability, T/C (second compound 0.1 µM, first compound 1 µM) of the same molecule?
Answer: 51.4%

Question: What about the viability, T/C (second compound 0.1 µM, first compound 3.16 µM) of the same molecule?
Answer: 61.5%

Question: And the viability, T/C (second compound 0.1 µM, first compound 10 µM)?
Answer: 58.8%

Question: What about the viability, T/C (second compound 0.316 µM, first compound 0.0316 µM) of the same molecule?
Answer: 22.1%

Question: And the viability, T/C (second compound 0.316 µM, first compound 0.1 µM)?
Answer: 24.6%

Question: And the viability, T/C (second compound 0.316 µM, first compound 0.316 µM)?
Answer: 24.9%

Question: And the viability, T/C (second compound 0.316 µM, first compound 1 µM)?
Answer: 29.5%

Question: And the viability, T/C (second compound 0.316 µM, first compound 3.16 µM)?
Answer: 27.3%

Question: And the viability, T/C (second compound 0.316 µM, first compound 10 µM)?
Answer: 22.5%

Question: What about the viability, T/C (second compound 1 µM, first compound 0.0316 µM) of the same molecule?
Answer: 27.8%

Question: What about the viability, T/C (second compound 1 µM, first compound 0.1 µM) of the same molecule?
Answer: 35.9%

Question: And the viability, T/C (second compound 1 µM, first compound 0.316 µM)?
Answer: 29.4%

Question: And the viability, T/C (second compound 1 µM, first compound 1 µM)?
Answer: 20.9%

Question: And the viability, T/C (second compound 1 µM, first compound 3.16 µM)?
Answer: 32%

Question: And the viability, T/C (second compound 1 µM, first compound 10 µM)?
Answer: 29.5%

Question: And the viability, T/C (second compound 3.16 µM, first compound 0.0316 µM)?
Answer: 23.5%

Question: What about the viability, T/C (second compound 3.16 µM, first compound 0.1 µM) of the same molecule?
Answer: 29.2%

Question: What about the viability, T/C (second compound 3.16 µM, first compound 0.316 µM) of the same molecule?
Answer: 26.2%

Question: What about the viability, T/C (second compound 3.16 µM, first compound 1 µM) of the same molecule?
Answer: 29.4%

Question: What about the viability, T/C (second compound 3.16 µM, first compound 3.16 µM) of the same molecule?
Answer: 32.7%

Question: And the viability, T/C (second compound 3.16 µM, first compound 10 µM)?
Answer: 29.4%

Question: And the viability, T/C (second compound 10 µM, first compound 0.0316 µM)?
Answer: 0.13%

Question: What about the viability, T/C (second compound 10 µM, first compound 0.1 µM) of the same molecule?
Answer: 0.18%

Question: What about the viability, T/C (second compound 10 µM, first compound 0.316 µM) of the same molecule?
Answer: 0.34%

Question: What about the viability, T/C (second compound 10 µM, first compound 1 µM) of the same molecule?
Answer: 0.18%

Question: And the viability, T/C (second compound 10 µM, first compound 3.16 µM)?
Answer: 1.03%

Question: And the viability, T/C (second compound 10 µM, first compound 10 µM)?
Answer: 0.25%
